Assay results reported in patent US20060069132A1, “Azolecarboxamide herbicides” (priority 2004, published 2006).

Experiments:
barnyardgrass [1] = test: Test B pre-/postemergence herbicide test; format: in vivo, Echinochloa crus-galli; conditions: for Plant response rating, Barnyardgrass: preemergence; for Barnyardgrass plant response rating: postemergence, visual rating, scale 0 (no effect) to 100 (complete control)
Method in brief: (§1)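 Flooded paddy rice and barnyardgrass were treated at the 2-leaf stage; upland plantings received compound either on sown seed or on 1- to 4-leaf seedlings. All were kept 13–15 days in a greenhouse and scored visually, 0–100, relative to untreated plants.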

Surinam grass = test: Test B pre-/postemergence herbicide test; format: in vivo, Urochloa decumbens; conditions: for Plant response rating, Surinam Grass: preemergence; for Surinam Grass plant response rating: postemergence, visual rating, scale 0 (no effect) to 100 (complete control)
Method in brief: (§2)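 Evaluation is visual, comparing treated with control plants on a scale where 0 means no effect and 100 means full control. Treatments were preemergence, or postemergence on seedlings 2–18 cm tall, and held 13–15 days in the greenhouse.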

cocklebur = test: Test B pre-/postemergence herbicide test; format: in vivo, Xanthium strumarium; conditions: for Plant response rating, Cocklebur: preemergence; for Cocklebur plant response rating: postemergence, visual rating, scale 0 (no effect) to 100 (complete control)
Method in brief: as §1

corn = test: Test B pre-/postemergence herbicide test; format: in vivo, Zea mays; conditions: for Plant response rating, Corn: preemergence; for Corn plant response rating: postemergence, visual rating, scale 0 (no effect) to 100 (complete control)
Method in brief: as §2

large crabgrass = test: Test B pre-/postemergence herbicide test; format: in vivo, Digitaria sanguinalis; conditions: for Plant response rating, Crabgrass, Large: preemergence; for Crabgrass, Large plant response rating: postemergence, visual rating, scale 0 (no effect) to 100 (complete control)
Method in brief: as §2

giant foxtail = test: Test B pre-/postemergence herbicide test; format: in vivo, Setaria faberi; conditions: for Plant response rating, Foxtail, Giant: preemergence; for Foxtail, Giant plant response rating: postemergence, visual rating, scale 0 (no effect) to 100 (complete control)
Method in brief: as §2

morningglory = test: Test B pre-/postemergence herbicide test; format: in vivo, Ipomoea coccinea; conditions: for Plant response rating, Morningglory: preemergence; for Morningglory plant response rating: postemergence, visual rating, scale 0 (no effect) to 100 (complete control)
Method in brief: as §1

pigweed = test: Test B pre-/postemergence herbicide test; format: in vivo, Amaranthus retroflexus; conditions: for Plant response rating, Pigweed: preemergence; for Pigweed plant response rating: postemergence, visual rating, scale 0 (no effect) to 100 (complete control)
Method in brief: as §2

velvetleaf = test: Test B pre-/postemergence herbicide test; format: in vivo, Abutilon theophrasti; conditions: for Plant response rating, Velvetleaf: preemergence; for Velvetleaf plant response rating: postemergence, visual rating, scale 0 (no effect) to 100 (complete control)
Method in brief: as §2

blackgrass = test: Test B postemergence herbicide test; format: in vivo, Alopecurus myosuroides; conditions: postemergence, visual rating, scale 0 (no effect) to 100 (complete control)
Method in brief: (§3)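 After treating 2-leaf paddy plants or 2–18 cm postemergence plants (1 to 4 leaves) with formulated chemical, researchers kept them in a greenhouse for 13–15 days. Effects were judged visually versus controls: 0 indicates none, 100 total control.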

wheat = test: Test B postemergence herbicide test; format: in vivo, Triticum aestivum; design: key to Wheat plant response rating: 0 = no effect, 100 = complete control; conditions: postemergence, visual rating, scale 0 (no effect) to 100 (complete control)
Method in brief: (§4)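 Visual ratings, 0 (no effect) to 100 (complete control), made versus controls after 13–15 d greenhouse. Paddy plants treated at 2-leaf stage; postemergence plants at 1- to 4-leaf stage, 2–18 cm tall.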

wild oat = test: Test B postemergence herbicide test; format: in vivo, Avena fatua; conditions: postemergence, visual rating, scale 0 (no effect) to 100 (complete control)
Method in brief: as §4

rice = test: Test B flooded paddy test; format: in vivo, Oryza sativa; conditions: 1000 g ai/ha, visual rating, scale 0 to 100 (0 no effect, 100 complete control), 13 to 15 days
Method in brief: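 Each value is a visual 0–100 response rating taken against controls 13 to 15 days after treatment in the greenhouse. Plants received formulated chemical postemergence at the 1- to 4-leaf stage or, in flooded paddy, at the 2-leaf stage.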

[2] = system: small flower umbrella sedge; test: Test B flooded paddy test; format: in vivo, Cyperus difformis; conditions: 1000 g ai/ha, visual rating, scale 0 to 100 (0 no effect, 100 complete control), 13 to 15 days
Method in brief: as §3

ducksalad = test: Test B flooded paddy test; format: in vivo, Heteranthera limosa; conditions: 1000 g ai/ha, visual rating, scale 0 to 100 (0 no effect, 100 complete control), 13 to 15 days
Method in brief: as §3

barnyardgrass [3] = test: Test B flooded paddy test; format: in vivo, Echinochloa crus-galli; conditions: 1000 g ai/ha, visual rating, scale 0 to 100 (0 no effect, 100 complete control), 13 to 15 days
Method in brief: as §3

[4] = 500 g ai/ha, visual rating 0-100, 0 no effect, 100 complete control
[5] = 125 g ai/ha, 0 to 100 scale, 0 is no effect, 100 is complete control

CCn1nc(C(C)(C)C)cc1C(=O)Nc1cccc(SC(F)(F)F)c1 [Compound 130]
80: Barnyardgrass plant response rating (barnyardgrass [1]; 500 g ai/ha) | Plant response rating, Surinam Grass (Surinam grass; [4])
0: Plant response rating, Cocklebur (cocklebur; [4]) | Plant response rating, Cocklebur (cocklebur; [5]) | Rice plant response rating (rice) | Sedge, Umbrella plant response rating [2]
60: Plant response rating, Surinam Grass (Surinam grass; [5]) | Foxtail, Giant plant response rating (giant foxtail; 500 g ai/ha) | Blackgrass plant response rating (blackgrass; 500 g ai/ha) | Oat, Wild plant response rating (wild oat; 500 g ai/ha)
90: Surinam Grass plant response rating (Surinam grass; 500 g ai/ha) | Crabgrass, Large plant response rating (large crabgrass; 500 g ai/ha) | Plant response rating, Crabgrass, Large (large crabgrass; [5]) | Plant response rating, Velvetleaf (velvetleaf; [4])
20: Plant response rating, Corn (corn; [4]) | Corn plant response rating (corn; 125 g ai/ha) | Foxtail, Giant plant response rating (giant foxtail; 125 g ai/ha) | Plant response rating, Foxtail, Giant (giant foxtail; [5]) | Plant response rating, Pigweed (pigweed; [5]) | Blackgrass plant response rating (blackgrass; 125 g ai/ha) | Wheat plant response rating (wheat; 125 g ai/ha)
50: Barnyardgrass plant response rating (barnyardgrass [1]; 125 g ai/ha) | Surinam Grass plant response rating (Surinam grass; 125 g ai/ha)
100: Cocklebur plant response rating (cocklebur; 125 g ai/ha) | Cocklebur plant response rating (cocklebur; 500 g ai/ha) | Plant response rating, Crabgrass, Large (large crabgrass; [4]) | Morningglory plant response rating (morningglory; 125 g ai/ha) | Morningglory plant response rating (morningglory; 500 g ai/ha) | Plant response rating, Pigweed (pigweed; [4]) | Pigweed plant response rating (pigweed; 125 g ai/ha) | Pigweed plant response rating (pigweed; 500 g ai/ha)
70: Plant response rating, Barnyardgrass (barnyardgrass [1]; [4]) | Crabgrass, Large plant response rating (large crabgrass; 125 g ai/ha) | Plant response rating, Foxtail, Giant (giant foxtail; [4]) | Velvetleaf plant response rating (velvetleaf; 125 g ai/ha) | Velvetleaf plant response rating (velvetleaf; 500 g ai/ha)
40: Corn plant response rating (corn; 500 g ai/ha) | Wheat plant response rating (wheat; 500 g ai/ha) | Oat, Wild plant response rating (wild oat; 125 g ai/ha) | Barnyardgrass plant response rating (barnyardgrass [3])
10: Plant response rating, Barnyardgrass (barnyardgrass [1]; [5]) | Plant response rating, Corn (corn; [5]) | Plant response rating, Morningglory (morningglory; [4]) | Plant response rating, Morningglory (morningglory; [5]) | Plant response rating, Velvetleaf (velvetleaf; [5]) | Ducksalad plant response rating (ducksalad)

CCn1nc(C(C)(C)C)cc1C(=O)Nc1cccc(SC)c1 [Compound 131]
100: Cocklebur plant response rating (cocklebur; 500 g ai/ha) | Plant response rating, Crabgrass, Large (large crabgrass; [4]) | Plant response rating, Pigweed (pigweed; [4]) | Plant response rating, Pigweed (pigweed; [5]) | Plant response rating, Velvetleaf (velvetleaf; [4])
40: Velvetleaf plant response rating (velvetleaf; 500 g ai/ha)
0: Plant response rating, Cocklebur (cocklebur; [5]) | Plant response rating, Corn (corn; [4]) | Plant response rating, Corn (corn; [5])
50: Barnyardgrass plant response rating (barnyardgrass [1]; 500 g ai/ha) | Plant response rating, Crabgrass, Large (large crabgrass; [5]) | Plant response rating, Velvetleaf (velvetleaf; [5])
90: Plant response rating, Barnyardgrass (barnyardgrass [1]; [4])
10: Barnyardgrass plant response rating (barnyardgrass [1]; 125 g ai/ha) | Plant response rating, Surinam Grass (Surinam grass; [5]) | Plant response rating, Cocklebur (cocklebur; [4]) | Plant response rating, Foxtail, Giant (giant foxtail; [5]) | Plant response rating, Morningglory (morningglory; [5]) | Velvetleaf plant response rating (velvetleaf; 125 g ai/ha) | Blackgrass plant response rating (blackgrass; 125 g ai/ha) | Wheat plant response rating (wheat; 125 g ai/ha)
20: Surinam Grass plant response rating (Surinam grass; 125 g ai/ha) | Corn plant response rating (corn; 125 g ai/ha) | Corn plant response rating (corn; 500 g ai/ha) | Crabgrass, Large plant response rating (large crabgrass; 125 g ai/ha) | Foxtail, Giant plant response rating (giant foxtail; 125 g ai/ha) | Morningglory plant response rating (morningglory; 125 g ai/ha) | Blackgrass plant response rating (blackgrass; 500 g ai/ha) | Wheat plant response rating (wheat; 500 g ai/ha) | Oat, Wild plant response rating (wild oat; 125 g ai/ha) | Oat, Wild plant response rating (wild oat; 500 g ai/ha)
80: Sedge, Umbrella plant response rating [2] | Ducksalad plant response rating (ducksalad)
70: Plant response rating, Barnyardgrass (barnyardgrass [1]; [5]) | Cocklebur plant response rating (cocklebur; 125 g ai/ha) | Plant response rating, Foxtail, Giant (giant foxtail; [4]) | Barnyardgrass plant response rating (barnyardgrass [3])
30: Crabgrass, Large plant response rating (large crabgrass; 500 g ai/ha) | Foxtail, Giant plant response rating (giant foxtail; 500 g ai/ha) | Plant response rating, Morningglory (morningglory; [4]) | Pigweed plant response rating (pigweed; 125 g ai/ha)
60: Plant response rating, Surinam Grass (Surinam grass; [4]) | Surinam Grass plant response rating (Surinam grass; 500 g ai/ha) | Morningglory plant response rating (morningglory; 500 g ai/ha) | Pigweed plant response rating (pigweed; 500 g ai/ha) | Rice plant response rating (rice)
